Entries after “also recorded” stand apart in the source; their conditions may differ.
Columns and labels:
[1] = target: T1, OATP1B3 (Homo sapiens, UniProt Q9NPD5); conditions: cited from earlier work
T1 sequence (Q9NPD5 1-702): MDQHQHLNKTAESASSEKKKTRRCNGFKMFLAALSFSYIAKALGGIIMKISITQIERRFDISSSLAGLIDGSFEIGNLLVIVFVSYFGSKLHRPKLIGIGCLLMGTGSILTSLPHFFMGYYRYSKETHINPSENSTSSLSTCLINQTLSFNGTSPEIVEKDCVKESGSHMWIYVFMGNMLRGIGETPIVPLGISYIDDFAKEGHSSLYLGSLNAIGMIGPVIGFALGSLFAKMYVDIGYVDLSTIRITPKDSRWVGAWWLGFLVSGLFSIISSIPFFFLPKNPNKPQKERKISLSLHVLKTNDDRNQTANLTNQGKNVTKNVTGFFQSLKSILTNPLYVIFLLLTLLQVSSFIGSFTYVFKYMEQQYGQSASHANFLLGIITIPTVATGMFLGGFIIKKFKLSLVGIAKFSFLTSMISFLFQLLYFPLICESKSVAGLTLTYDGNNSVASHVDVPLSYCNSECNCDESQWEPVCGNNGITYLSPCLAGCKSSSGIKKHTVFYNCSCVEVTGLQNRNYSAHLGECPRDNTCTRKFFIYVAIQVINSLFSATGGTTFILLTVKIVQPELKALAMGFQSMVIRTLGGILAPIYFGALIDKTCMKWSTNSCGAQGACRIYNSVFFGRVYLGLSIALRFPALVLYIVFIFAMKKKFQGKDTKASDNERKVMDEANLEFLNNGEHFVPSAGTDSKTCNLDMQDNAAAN

[2] = tested on: CYP (any CYP); test: CYP inhibition; conditions: on any CYP
[3] = target: T2, OATP1B1 (Homo sapiens, UniProt Q9Y6L6); conditions: cited from earlier work
T2 sequence (Q9Y6L6 1-691): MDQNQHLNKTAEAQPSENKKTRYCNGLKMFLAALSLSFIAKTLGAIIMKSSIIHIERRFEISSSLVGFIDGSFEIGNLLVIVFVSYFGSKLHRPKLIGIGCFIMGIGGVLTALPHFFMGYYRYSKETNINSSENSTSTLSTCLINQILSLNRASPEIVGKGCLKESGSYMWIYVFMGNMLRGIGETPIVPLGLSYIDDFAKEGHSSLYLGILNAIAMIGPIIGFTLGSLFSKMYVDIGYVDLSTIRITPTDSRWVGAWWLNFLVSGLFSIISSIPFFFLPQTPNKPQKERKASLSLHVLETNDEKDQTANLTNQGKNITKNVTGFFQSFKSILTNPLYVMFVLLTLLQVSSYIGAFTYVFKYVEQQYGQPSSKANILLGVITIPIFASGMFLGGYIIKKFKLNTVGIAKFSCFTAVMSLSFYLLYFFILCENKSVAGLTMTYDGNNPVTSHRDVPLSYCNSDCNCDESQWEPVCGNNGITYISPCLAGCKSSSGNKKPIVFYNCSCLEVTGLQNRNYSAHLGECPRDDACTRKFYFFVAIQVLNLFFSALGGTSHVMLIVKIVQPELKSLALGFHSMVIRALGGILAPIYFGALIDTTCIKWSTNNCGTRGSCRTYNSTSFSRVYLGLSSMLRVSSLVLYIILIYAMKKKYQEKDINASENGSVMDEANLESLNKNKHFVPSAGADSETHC

[4] = Drug-drug interaction study in humans (Phase-1, open-label, two-group, fixed-sequence, PK); conditions: for increase of exposure caused by SMV: co-administration of SMV
Description: A drug-drug interaction study (DDI) study is a study designed to investigate whether a drug alters the pharmacokinetics of another drug or drugs or their metabolites.
Compound (III)—Subjects received 800 mg of Compound (III) once daily from Days 1-3, Days 11-13, and Days 21-23. PK blood samples for determination of Compound (III) and metabolite concentrations were collected in reference to the Day 3, Day 13, and Day 23 doses.
Simeprevir—Subjects received 150 mg of Simeprevir (SMV) once daily from Days 4-23. PK blood samples for determination of SMV concentrations were collected in reference to the Day 10, Day 13, Day 20, and Day 23 doses.
Odalasvir—Subjects received a loading dose of 150 mg on Day 14, and 50 mg of Odalasvir once daily from Days 15-23. PK blood samples for determination of Odalasvir concentrations were collected in reference to the Day 20 and Day 23 doses.
Compound (III)—Subjects received 800 mg of Compound (III) once daily from Days 1-3, Days 11-13 and Days 21-23. PK blood samples for determination of Compound (III) and metabolite concentrations were collected in reference to the Day 3, Day 13, and Day 23 doses.
Simeprevir—Subjects receive 150 mg of SMV once daily from Days 4-23. PK blood samples for determination of SMV concentrations were collected in reference to the Day 20 and Day 23 doses.
Odalasvir—Subjects receive a loading dose of 150 mg on Day 4, and 50 mg of Odalasvir once daily from Days 5-23. PK blood samples for determination of Odalasvir concentrations were collected in reference to the Day 10, Day 13, Day 20, and Day 23 doses.
This drug-drug interaction study was intended to assess the safety and tolerability of the described drug combinations at pre-defined time points throughout the study. Study completion/follow-up visit(s) were performed 7 and 28 days after completion of the last study assessment.
A primary objective was to evaluate the effect of multiple oral doses of Odalasvir (alone), Simeprevir (alone), and Odalasvir and Simeprevir on the multiple oral dose PK of Compound (III) (and certain metabolites thereof, such as the major metabolites in systemic circulation) in healthy volunteers. Other objectives were to evaluate the safety and tolerability of multiple oral doses of Compound (III) when administered alone and in combination with single and multiple oral doses of Odalasvir and/or Simeprevir in healthy volunteers; to determine the potential effect of Compound of Compound (III) and/or Odalasvir on the steady-state PK of Simeprevir in healthy volunteers; to determine the potential effect of Compound of Compound (III) and/or Simeprevir on the steady state PK of Odalasvir in healthy volunteers.
Various other PK parameters were estimated including: Clast, t1/2, Tmax, Tlast, CL/F, Vz/F, and λz.
The following daily doses were employed:
Odalasvir: 150 mg loading dose; 50 mg for the remainder of the study period.

| SMILES | inhibition of OATP1B3 [1] | CYP inhibition potential [2] | inhibition of OATP1B1 [3] | increase of exposure caused by Odalasvir ([4]; DDI study, co-administration of Odalasvir) | increase of exposure caused by SMV ([4]; DDI study) | Cmax ([4]; Group 1, Day 13, Compound (III) 800 mg QD + SMV 150 mg QD) | Cmax ([4]; Group 1, Day 23, Compound (III) 800 mg + SMV 150 mg + ODV 50 mg QD) | Cmax ([4]; Group 2, Day 3, Compound (III) 800 mg QD alone) | Cmax ([4]; Group 2, Day 13, (Compound (III) + SMV) as printed in Table 1) | Cmax ([4]; Group 2, Day 23, Compound (III) 800 mg + SMV 150 mg + ODV 50 mg QD) | increase of exposure in the combination ([4]; both, human, in vivo) | Cmax ([4]; healthy volunteers, Group 1, Day 3, Compound (III) 800 mg QD alone) | bioavailability with SMV and ODV co-administered compared to Compound (III) alone ([4]; human subjects) | increase of exposure, effect of the three Compounds ([4]; DDI study, Compound (III) + SMV + Odalasvir together) | effect of Compound (III) on exposure/bioavailability ([4]; DDI study, co-administration of Compound (III)) | increase of exposure in the combination ([4]; human in vivo study (Example 1), three drugs combined) | increase of exposure by SMV ([4]; human subjects) |
| --- | --- | --- | --- | --- | --- | --- | --- | --- | --- | --- | --- | --- | --- | --- | --- | --- | --- |
| CC(C)OC(=O)[C@H](C)N[P@](=O)(OC[C@@]1(F)O[C@@H](n2ccc(=O)[nH]c2=O)[C@](C)(O)[C@@H]1O)Oc1ccccc1 [Compound (III), isopropyl ((S)-(((2S,3S,4R,5R)-5-(2,4-dioxo-3,4-dihydropyrimidin-1 (2H)-yl)-2-fluoro-3,4-dihydroxy-4-methyltetrahydrofuran-2-yl)methoxy)(phenoxy)phosphoryl)-L-alaninate] | no in vitro inhibition | limited CYP inhibition potential | no in vitro inhibition | 4 × | 3 × | 376.2 ng/mL | 746.6 ng/mL | 150.7 ng/mL | 515.9 ng/mL | 949.6 ng/mL | 7-8 times | 161.6 ng/mL | approximately 8 fold |  |  |  |  |
| COC(=O)N[C@H](C(=O)N1[C@H](c2nc3cc(-c4cc5ccc4CCc4ccc(c(-c6ccc7[nH]c([C@@H]8C[C@@H]9CCCC[C@@H]9N8C(=O)[C@@H](NC(=O)OC)C(C)C)nc7c6)c4)CC5)ccc3[nH]2)C[C@@H]2CCCC[C@@H]21)C(C)C [ODV, methyl [(2S)-1-[(2S,3aS,7aS)-2-[6-[11-[2-[(2S,3aS,7aS)-1-[(2S)-2-[(methoxycarbonyl)amino]-3-methylbutanoyl]octahydro-1H-indol-2-yl]-1H-benzimidazol-6-yl]tricyclo[8.2.2.2^4,7]hexadeca-1(12),4,6,10,13,15-hexaen-5-yl]-1H-benzimidazol-2-yl]octahydro-1H-indol-1-yl]-3-methyl-1-oxobutan-2-yl]carbamate] | no inhibition | does not inhibit cytochrome P450 enzymes; also recorded: does not inhibit CYP450 activity | no inhibition |  | 1.6 × |  |  |  |  |  |  |  |  | 1.5 × | no apparent effect; also recorded: does not alter the bioavailability | 1.5 times | 1.6 fold |
